Laboratory results reported in ChEMBL document CHEMBL1158214, “Rollinecins A and B: two new bioactive annonaceous acetogenins from Rollinia mucosa” (J Nat Prod, 1996).
≈ marks a conversion by molar mass, not a printed value.

Experiments:
MIA PaCa-2 = assay: Cytotoxicity against human MIAPaCa2 cells; type: functional
A498 = assay: Cytotoxicity against human A498 cells; type: functional
HT-29 = assay: Cytotoxicity against human HT29 cells; type: functional; details: read-out: ED50 (the source's name)
A549 = assay: Cytotoxicity against human A549 cells; type: functional
PC-3 = assay: Cytotoxicity against human PC3 cells; type: functional
MCF7 = assay: Cytotoxicity against human MCF7 cells; type: functional; details: read-out: ED50 (the source's name)
[1] = Toxicity in brine shrimp; type: organism-based; details: artemia, in vivo

SMILES	EC50 (MIA PaCa-2; Homo sapiens, MIA PaCa-2, read-out: ED50 (the source's name))	EC50 (A498; Homo sapiens, A498, read-out: ED50 (the source's name))	EC50 (HT-29)	EC50 (A549; Homo sapiens, A549, read-out: ED50 (the source's name))	EC50 (PC-3; Homo sapiens, PC-3, read-out: ED50 (the source's name))	EC50 (MCF7)	ED50 (MIA PaCa-2)	ED50 (A498)	ED50 (A549)	ED50 (PC-3)	LC50 [1]
COc1cccc2c1C(=O)c1c(O)c3c(c(O)c1C2=O)C[C@@](O)(C(=O)CO)C[C@@H]3O[C@H]1C[C@H](N)[C@H](O)[C@H](C)O1 [DOXORUBICIN]	0.0224 µg/mL (≈ 0.0412 µM)	1.9 ng/mL (≈ 0.0035 µM)	0.0193 µg/mL (≈ 0.0355 µM)	1.57 ng/mL (≈ 0.00289 µM)	0.0281 µg/mL (≈ 0.0517 µM)	0.0968 µg/mL (≈ 0.178 µM)					
CCCCCCCCCCCC[C@H](O)[C@H]1CC[C@H]([C@H](O)CC[C@H](O)CCCCCCCCC[C@@H](O)CC2=C[C@H](C)OC2=O)O1 [ROLLINECIN A]			1.6 µg/mL (≈ 2.56 µM)			1.44 µg/mL (≈ 2.3 µM)	3.47 ×10⁻⁵ ug/ml	7.25 ×10⁻⁴ ug/ml	1.14 ×10⁻⁴ ug/ml	2.62 ×10⁻⁴ ug/ml	0.31 µg/mL (≈ 0.496 µM)
CCCCCCCCCCCC[C@H](O)[C@H]1CC[C@H]([C@H](O)CC[C@@H](O)CCCCCCCCC[C@@H](O)CC2=C[C@H](C)OC2=O)O1 [ROLLINECIN B]			1.44 µg/mL (≈ 2.3 µM)			2.72 µg/mL (≈ 4.35 µM)	2.53 ×10⁻⁴ ug/ml	2.29 ×10⁻⁴ ug/ml	4.23 ×10⁻⁴ ug/ml	3.62 ×10⁻⁴ ug/ml	0.13 µg/mL (≈ 0.208 µM)
